In publication PMC4425204 (Bioorganic & medicinal chemistry letters, 2014):

Target: FabB (Escherichia coli, UniProt P0A953)
Experiment: NMR wLOGSY assay to evaluate FabB binding
Parameters: species or system E. coli

Sequence of FabB (P0A953 whole entry): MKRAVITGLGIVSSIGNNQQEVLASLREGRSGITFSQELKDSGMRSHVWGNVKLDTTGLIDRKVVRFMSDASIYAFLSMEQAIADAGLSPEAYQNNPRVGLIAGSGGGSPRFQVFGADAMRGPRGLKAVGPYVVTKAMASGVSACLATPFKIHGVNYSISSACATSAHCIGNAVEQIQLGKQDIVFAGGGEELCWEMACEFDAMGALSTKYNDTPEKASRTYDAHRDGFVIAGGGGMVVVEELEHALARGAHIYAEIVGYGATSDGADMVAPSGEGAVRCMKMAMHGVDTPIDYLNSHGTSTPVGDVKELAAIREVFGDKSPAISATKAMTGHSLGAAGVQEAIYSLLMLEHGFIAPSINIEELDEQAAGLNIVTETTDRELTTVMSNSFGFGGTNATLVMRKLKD

O=c1oc2cc(Cl)ccc2n1CN(CC1CCOC1)C1CC1 (stereo not shown) [compound 1]
FabB binding in NMR wLOGSY assay: exhibited binding
